Experiment [1] has as its system PC9 cells (EGFR Exon 19 del, non-small cell lung cancer cells). Description: Cell viability assay (WST/CCK8), PC9 cells. It is filed as cell-based. The note with it: Homo sapiens, PC-9, PC9 (Exon19 Del), 72 hours, read-out: IC50 (half inhibitory concentration). An excerpt: The cell lines with abnormal EGFR expression used are as follows: • HCC827 cells (EGFR Exon19 del, non-small cell lung cancer cells); • PC9 cells (EGFR Exon 19 del, non-small cell lung cancer cells); • PC9BracA1 (EGFR Exon 19 del+T790M, non-small cell lung cancer cells) • H1975 (EGFR Exon T790M+L858R mutation, non-small cell lung cancer cell line) • BT474 cells (HER2 positive breast cancer cells)
All of the half inhibitory concentrations (IC50) of these compounds of the present invention were determined with WST reagent from Fuyuan Biotec Company. The specific experiment procedures are as follows: Cancer cells were planted in 96-well-plate at the density of 3 000 cells per well with 100 μL RPMI1640 completed culture medium. In the next day, compounds with indicated concentrations were added to the cells, DMSO was used as the negative control and the EGFR TKIs were used to treat cells as the positive groups. After 72 hours drug treatment, cell viability was measured by using the WST reagent following the instructions.
The cells were treated with the gradient concentration of these compounds (the maximum concentration: 10 μM; 3-fold dilution ratio, 10 concentration gradients) for 72 hours and then incubated with the WST (CCK8) reagent to determine the cell viability.

The test system of experiment [2] is HCC827 cells (EGFR Exon19 del, non-small cell lung cancer cells). Briefly: Cell viability assay (WST/CCK8), HCC827 cells. It counts as cell-based. Conditions: Homo sapiens, HCC827, 72 h, HCC827 (Exon19 Del), 72 hours, read-out: IC50 (half inhibitory concentration). In a few lines: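 Plated 3 000 cells/well in complete RPMI1640 the day before dosing; controls were DMSO (negative) and EGFR TKIs (positive).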

Setting [3] is: Table 6, canertinib-based compounds, WST.

Like-named read-outs stand apart in the source and are kept apart here.

As for `COc1cc2ncnc(Nc3ccc(F)c(Cl)c3)c2cc1NC(=O)/C=C/CN1CCC(N2CCN(C(=O)CCCCCCNc3cccc4c3CN(C3CCC(=O)NC3=O)C4=O)CC2)CC1` (centres unmarked) [SIAIS337036, (E)-N-(4-((3-chloro-4-fluorophenyl)amino)-7-methoxyquinazolin-6-yl)-4-(4-(4-(7-((2-(2,6-dioxopiperidin-3-yl)-1-oxoisoindolin-4-yl)amino)heptanoyl)piperazin-1-yl)piperidin-1-yl)but-2-enamide], the IC50 in experiment [1] (WST (CCK8)) is 1.3 nM; in experiment [2] (WST (CCK8)) it was 0.7 nM.

For the molecule `COc1cc2ncnc(Nc3ccc(F)c(Cl)c3)c2cc1OCCCN1CCN(C(=O)COCCSc2cccc3c2C(=O)N(C2CCC(=O)NC2=O)C3=O)CC1` (centres unmarked) [SIAIS184168, 4-((2-(2-(4-(3-((4-((3-chloro-4-fluorophenyl)amino)-7-methoxyquinazolin-6-yl)oxy)propyl)piperazin-1-yl)-2-oxoethoxy)ethyl)thio)-2-(2,6-dioxopiperidin-3-yl)isoindoline-1,3-dione], the IC50 in experiment [1] (Table 4, gefitinib-based compounds, WST) amounted to 317 nM; in experiment [2] (Table 4, gefitinib and sapitinib-based compounds, WST), 43 nM.

With `COc1cc2ncnc(Nc3ccc(F)c(Cl)c3)c2cc1NC(=O)/C=C/CN1CCC(N2CCN(C(=O)CCCCCCCCCCSc3cccc4c3CN(C3CCC(=O)NC3=O)C4=O)CC2)CC1` (centres unmarked) [SIAIS337038, (E)-N-(4-((3-chloro-4-fluorophenyl)amino)-7-methoxyquinazolin-6-yl)-4-(4-(4-(11-((2-(2,6-dioxopiperidin-3-yl)-1-oxoisoindolin-4-yl)thio)undecanoyl)piperazin-1-yl)piperidin-1-yl)but-2-enamide], the values for the IC50 in experiment [1] (WST (CCK8)) and in experiment [2] (WST (CCK8)) were 1.6 nM and 0.3 nM, respectively.

As for `COc1cc2ncnc(Nc3ccc(F)c(Cl)c3)c2cc1NC(=O)/C=C/CN1CCN(C(=O)COCCOCCOCCOCCSc2cccc3c2C(=O)N(C2CCC(=O)NC2=O)C3=O)CC1` (centres unmarked) [SIAIS262007, (E)-N-(4-((3-chloro-4-fluorophenyl)amino)-7-methoxyquinazolin-6-yl)-4-(4-(14-((2-(2,6-dioxopiperidin-3-yl)-1,3-dioxoisoindolin-4-yl)thio)-3,6,9,12-tetraoxatetradecanoyl)piperazin-1-yl)but-2-enamide], the IC50 was 84 nM in experiment [1] (WST (CCK8)) and 26 nM in experiment [2] (WST (CCK8)).

On to `COc1cc2ncnc(Nc3ccc(F)c(Cl)c3)c2cc1NC(=O)/C=C/CN1CCN(C(=O)CCCCCCNc2cccc3c2C(=O)N(C2CCC(=O)NC2=O)C3=O)CC1` (centres unmarked) [SIAIS262015, (E)-N-(4-((3-chloro-4-fluorophenyl)amino)-7-methoxyquinazolin-6-yl)-4-(4-(7-((2-(2,6-dioxopiperidin-3-yl)-1,3-dioxoisoindolin-4-yl)amino)heptanoyl)piperazin-1-yl)but-2-enamide], for which the IC50 in experiment [1] (WST (CCK8)) came to 12 nM; in experiment [2] (WST (CCK8)), 3 nM.

`COc1cc2ncnc(Nc3ccc(F)c(Cl)c3)c2cc1NC(=O)/C=C/CN1CCN(C(=O)CCOCCOCCOCCOCCNc2cccc3c2C(=O)N(C2CCC(=O)NC2=O)C3=O)CC1` (centres unmarked) [SIAIS262014, (E)-N-(4-((3-chloro-4-fluorophenyl)amino)-7-methoxyquinazolin-6-yl)-4-(4-(1-((2-(2,6-dioxopiperidin-3-yl)-1,3-dioxoisoindolin-4-yl)amino)-3,6,9,12-tetraoxapentadecan-15-oyl)piperazin-1-yl)but-2-enamide]: the IC50 in experiment [1] (WST (CCK8)) was determined as 128 nM; in experiment [2] (WST (CCK8)), 39.5 nM.

Turning to `COc1cc2ncnc(Nc3ccc(F)c(Cl)c3)c2cc1NC(=O)/C=C/CN1CCN(C(=O)COCCOCCSc2cccc3c2C(=O)N(C2CCC(=O)NC2=O)C3=O)CC1` (centres unmarked) [SIAIS262005, (E)-N-(4-((3-chloro-4-fluorophenyl)amino)-7-methoxyquinazolin-6-yl)-4-(4-(2-(2-(2-((2-(2,6-dioxopiperidin-3-yl)-1,3-dioxoisoindolin-4-yl)thio)ethoxy)ethoxy)acetyl)piperazin-1-yl)but-2-enamide], the IC50 in experiment [1] (WST (CCK8)) is 84 nM; in experiment [2] (WST (CCK8)), 66.9 nM.

As for `COc1cc2ncnc(Nc3ccc(F)c(Cl)c3)c2cc1NC(=O)/C=C/CN1CCN(C(=O)CCNc2cccc3c2C(=O)N(C2CCC(=O)NC2=O)C3=O)CC1` (centres unmarked) [SIAIS262016, (E)-N-(4-((3-chloro-4-fluorophenyl)amino)-7-methoxyquinazolin-6-yl)-4-(4-(3-((2-(2,6-dioxopiperidin-3-yl)-1,3-dioxoisoindolin-4-yl)amino)propanoyl)piperazin-1-yl)but-2-enamide], the figures for the IC50 in experiment [1] (WST (CCK8)) and in experiment [2] (WST (CCK8)) were 112 nM and 4.5 nM, respectively.

Take `COc1cc2ncnc(Nc3ccc(F)c(Cl)c3)c2cc1NC(=O)/C=C/CN1CCN(C(=O)CCSc2cccc3c2CN(C2CCC(=O)NC2=O)C3=O)CC1` (centres unmarked) [SIAIS219186, (E)-N-(4-((3-chloro-4-fluorophenyl)amino)-7-methoxyquinazolin-6-yl)-4-(4-(3-((2-(2,6-dioxopiperidin-3-yl)-1-oxoisoindolin-4-yl)thio)propanoyl)piperazin-1-yl)but-2-enamide]: the figures for the IC50 in experiment [1] (WST (CCK8)) and in experiment [2] (WST (CCK8)) were 21.7 nM and 6 nM, respectively.

Consider `COc1cc2ncnc(Nc3ccc(F)c(Cl)c3)c2cc1NC(=O)/C=C/CN1CCN(C(=O)CCCCSc2cccc3c2C(=O)N(C2CCC(=O)NC2=O)C3=O)CC1` (centres unmarked) [SIAIS249037, (E)-N-(4-((3-chloro-4-fluorophenyl)amino)-7-methoxyquinazolin-6-yl)-4-(4-(5-((2-(2,6-dioxopiperidin-3-yl)-1,3-dioxoisoindolin-4-yl)thio)pentanoyl)piperazin-1-yl)but-2-enamide], for which the IC50 in experiment [1] (WST (CCK8)) was 28.7 nM; in experiment [2] (WST (CCK8)), 6.6 nM.

As to `COc1cc2ncnc(Nc3ccc(F)c(Cl)c3)c2cc1NC(=O)/C=C/CN1CCN(C(=O)CCCNc2cccc3c2CN(C2CCC(=O)NC2=O)C3=O)CC1` (centres unmarked) [SIAIS249057, (E)-N-(4-((3-chloro-4-fluorophenyl)amino)-7-methoxyquinazolin-6-yl)-4-(4-(4-((2-(2,6-dioxopiperidin-3-yl)-1-oxoisoindolin-4-yl)amino)butanoyl)piperazin-1-yl)but-2-enamide], the IC50 in experiment [1] (WST (CCK8)) is 7.8 nM; in experiment [2] (WST (CCK8)), 11.5 nM.

Turning to `COc1cc2ncnc(Nc3ccc(F)c(Cl)c3)c2cc1NC(=O)/C=C/CN1CCN(C(=O)CCCCSc2cccc3c2CN(C2CCC(=O)NC2=O)C3=O)CC1` (centres unmarked) [SIAIS219188, (E)-N-(4-((3-chloro-4-fluorophenyl)amino)-7-methoxyquinazolin-6-yl)-4-(4-(5-((2-(2,6-dioxopiperidin-3-yl)-1-oxoisoindolin-4-yl)thio)pentanoyl)piperazin-1-yl)but-2-enamide], the IC50 stood at 25.1 nM in experiment [1] (WST (CCK8)) and 3.1 nM in experiment [2] (WST (CCK8)).

`C=CC(=O)Nc1cc2c(Nc3ccc(F)c(Cl)c3)ncnc2cc1OCCCN1CCC(N2CCNCC2)CC1` [Caneritinib derivative B (SIAIS249183), N-(4-((3-chloro-4-fluorophenyl)amino)-7-(3-(4-(piperazin-1-yl)piperidin-1-yl)propoxy)quinazolin-6-yl)acrylamide]: the IC50 was found to be 13.9 nM in experiment [1] (setting [3]) and 15.9 nM in experiment [2] (setting [3]).

With `COc1cc2ncnc(Nc3ccc(F)c(Cl)c3)c2cc1NC(=O)/C=C/CN1CCN(C(=O)CCCCCCSc2cccc3c2C(=O)N(C2CCC(=O)NC2=O)C3=O)CC1` (centres unmarked) [SIAIS249039, (E)-N-(4-((3-chloro-4-fluorophenyl)amino)-7-methoxyquinazolin-6-yl)-4-(4-(7-((2-(2,6-dioxopiperidin-3-yl)-1,3-dioxoisoindolin-4-yl)thio)heptanoyl)piperazin-1-yl)but-2-enamide], the IC50 in experiment [1] (WST (CCK8)) came out at 18.7 nM; in experiment [2] (WST (CCK8)), 5.2 nM.

As for `COc1cc2ncnc(Nc3ccc(F)c(Cl)c3)c2cc1NC(=O)/C=C/CN1CCN(C(=O)CNc2cccc3c2CN(C2CCC(=O)NC2=O)C3=O)CC1` (centres unmarked) [SIAIS249056, (E)-N-(4-((3-chloro-4-fluorophenyl)amino)-7-methoxyquinazolin-6-yl)-4-(4-(2-((2-(2,6-dioxopiperidin-3-yl)-1-oxoisoindolin-4-yl)amino)acetyl)piperazin-1-yl)but-2-enamide], the IC50 came to 4 nM in experiment [1] (WST (CCK8)) and 7.3 nM in experiment [2] (WST (CCK8)).

In the case of `COc1cc2ncnc(Nc3ccc(F)c(Cl)c3)c2cc1NC(=O)/C=C/CN1CCN(C(=O)CCCCNc2cccc3c2CN(C2CCC(=O)NC2=O)C3=O)CC1` (centres unmarked) [SIAIS249058, (E)-N-(4-((3-chloro-4-fluorophenyl)amino)-7-methoxyquinazolin-6-yl)-4-(4-(5-((2-(2,6-dioxopiperidin-3-yl)-1-oxoisoindolin-4-yl)amino)pentanoyl)piperazin-1-yl)but-2-enamide], the IC50 in experiment [1] (WST (CCK8)) came to 9.9 nM; in experiment [2] (WST (CCK8)), 5.5 nM.
